# Assay results taken from the supplement of paper PMC6045584.
# ± gives the standard deviation of the averaged measurements.
# Columns and labels:
# [1] = compound: C[C@H](CN(C)C)Oc1nc(Nc2cc3cccc(Cl)c3cn2)cnc1C#N; experiment: surviving fraction relative to DMSO-only wells; higher = less growth inhibition; conditions: exposure time: 5 days
# How it was run: (§1)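 Inhibitors were tested at 0.5, 1, 5, 10, 50, 100, 500 and 1000 nM, applied continuously for five days beginning 24 hours after log-phase tumour cells were seeded at 250–500 per well in 384-well plates. CellTiter-Glo luminescence served as the viability measure, expressed as surviving fraction against the median of DMSO-only wells. Each line, screened three times, was kept only with replicate Pearson r >0.7 and median Z' >0.3.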
# [2] = compound: Cn1c(=O)n(-c2ccc(C(C)(C)C#N)cc2)c2c3cc(-c4cnc5ccccc5c4)ccc3ncc21 [BEZ-235]; experiment: as above; conditions: exposure time: 5 days
# How it was run: as §1
Test System,surviving fraction ([1]; 0.5 nM),surviving fraction ([1]; 1 nM),surviving fraction ([1]; 5 nM),surviving fraction ([1]; 10 nM),surviving fraction ([1]; 50 nM),surviving fraction ([1]; 100 nM),surviving fraction ([1]; 500 nM),surviving fraction ([1]; 1000 nM),surviving fraction ([2]; 0.5 nM),surviving fraction ([2]; 1 nM),surviving fraction ([2]; 5 nM),surviving fraction ([2]; 10 nM),surviving fraction ([2]; 50 nM),surviving fraction ([2]; 100 nM),surviving fraction ([2]; 500 nM),surviving fraction ([2]; 1000 nM)
MDAMB436 BREAST,0.927 ± 0.072,0.927 ± 0.15,0.963 ± 0.14,0.959 ± 0.13,0.953 ± 0.11,0.808 ± 0.14,0.641 ± 0.1,0.451 ± 0.077,0.94 ± 0.084,0.898 ± 0.085,0.876 ± 0.078,0.852 ± 0.088,0.545 ± 0.016,0.51 ± 0.047,0.392 ± 0.022,0.356 ± 0.013
MDAMB453 BREAST,1.04 ± 0.025,1.09 ± 0.063,1.11 ± 0.058,1.06 ± 0.025,1.1 ± 0.051,1.1 ± 0.056,0.596 ± 0.074,0.273 ± 0.012,1.05 ± 0.066,1.05 ± 0.022,1.09 ± 0.015,1.05 ± 0.057,0.574 ± 0.046,0.359 ± 0.025,0.197 ± 0.011,0.169 ± 0.012
MDAMB468 BREAST,0.976 ± 0.074,1.01 ± 0.043,1.08 ± 0.035,1.071 ± 0.0092,1.03 ± 0.036,1.03 ± 0.041,0.54 ± 0.039,0.223 ± 0.017,1.08 ± 0.038,1.11 ± 0.015,1.07 ± 0.06,1.13 ± 0.018,1.06 ± 0.093,0.885 ± 0.05,0.366 ± 0.03,0.247 ± 0.013
MFM223 BREAST,1.27 ± 0.17,1.09 ± 0.057,1.15 ± 0.14,1.09 ± 0.094,1.08 ± 0.093,1.14 ± 0.18,0.8 ± 0.048,0.526 ± 0.17,1.12 ± 0.069,1.13 ± 0.043,1.11 ± 0.06,1.15 ± 0.079,0.932 ± 0.071,0.588 ± 0.018,0.206 ± 0.018,0.179 ± 0.0092
MG63 BONE,1.03 ± 0.042,1.05 ± 0.035,1.05 ± 0.037,1.06 ± 0.025,1.11 ± 0.031,1.12 ± 0.047,1.05 ± 0.051,0.889 ± 0.045,1.04 ± 0.071,1.03 ± 0.027,1.06 ± 0.067,1.03 ± 0.052,0.582 ± 0.026,0.45 ± 0.024,0.17 ± 0.014,0.143 ± 0.011
MHM BONE,1.02 ± 0.031,1.03 ± 0.012,1.04 ± 0.026,1.07 ± 0.06,1.031 ± 0.0078,1.05 ± 0.02,1.063 ± 0.0031,0.999 ± 0.018,1.01 ± 0.021,0.995 ± 0.02,1.025 ± 0.0021,1.036 ± 0.0079,0.991 ± 0.018,0.885 ± 0.028,0.427 ± 0.011,0.351 ± 0.016
NCIH441 LUNG,1.1 ± 0.07,1.01 ± 0.04,1.1 ± 0.035,1.19 ± 0.053,1.17 ± 0.026,1.16 ± 0.11,0.86 ± 0.051,0.531 ± 0.031,1.16 ± 0.081,1.11 ± 0.1,1.1 ± 0.027,1.11 ± 0.11,1.21 ± 0.064,0.997 ± 0.1,0.527 ± 0.027,0.356 ± 0.061
NOS1 BONE,1.09 ± 0.18,1.05 ± 0.082,0.999 ± 0.066,1.02 ± 0.076,0.875 ± 0.046,0.709 ± 0.12,0.252 ± 0.0046,0.253 ± 0.0087,1.09 ± 0.1,1.08 ± 0.089,1.08 ± 0.085,1.08 ± 0.046,0.6 ± 0.036,0.49 ± 0.11,0.206 ± 0.024,0.166 ± 0.032
NY BONE,0.9707 ± 0.0081,0.948 ± 0.042,1.01 ± 0.026,1.01 ± 0.015,1 ± 0.029,0.854 ± 0.06,0.119 ± 0.0045,0.0907 ± 0.0051,0.996 ± 0.023,0.987 ± 0.018,1.02 ± 0.048,1.01 ± 0.044,0.825 ± 0.04,0.769 ± 0.003,0.486 ± 0.022,0.464 ± 0.036
OS25HAL BONE,0.972 ± 0.013,0.965 ± 0.034,1.049 ± 0.0085,0.979 ± 0.024,1.07 ± 0.057,1.09 ± 0.014,0.615 ± 0.082,0.217 ± 0.023,0.995 ± 0.017,1.01 ± 0.035,0.974 ± 0.031,0.965 ± 0.025,0.94 ± 0.045,0.788 ± 0.04,0.25 ± 0.0061,0.196 ± 0.018
OSHN BONE,1.06 ± 0.015,1.08 ± 0.025,1.07 ± 0.015,1.068 ± 0.0038,1.13 ± 0.029,1.1 ± 0.019,0.709 ± 0.1,0.11 ± 0.019,1.07 ± 0.033,1.09 ± 0.044,1.06 ± 0.029,1.08 ± 0.03,1.12 ± 0.013,1.12 ± 0.026,0.828 ± 0.02,0.623 ± 0.0072
PCI30 HEADNECK,0.99 ± 0.044,0.999 ± 0.019,1.06 ± 0.059,1.06 ± 0.11,0.9137 ± 0.0042,0.827 ± 0.079,0.337 ± 0.021,0.322 ± 0.017,0.955 ± 0.089,1.07 ± 0.066,1.07 ± 0.063,1.07 ± 0.082,0.83 ± 0.15,0.549 ± 0.011,0.343 ± 0.014,0.29 ± 0.014
RDES SOFT TISSUE,1.28 ± 0.031,1.37 ± 0.031,1.3 ± 0.14,1.2 ± 0.12,1.17 ± 0.086,1.32 ± 0.041,1.33 ± 0.1,1.38 ± 0.13,1.26 ± 0.072,1.18 ± 0.21,1.17 ± 0.094,1.24 ± 0.14,1.48 ± 0.18,1.14 ± 0.29,0.453 ± 0.089,0.2 ± 0.03
S68 BREAST,0.922 ± 0.12,1.07 ± 0.076,1.15 ± 0.062,0.966 ± 0.065,0.874 ± 0.14,0.652 ± 0.052,0.153 ± 0.0038,0.114 ± 0.0055,0.792 ± 0.081,1.01 ± 0.26,1.07 ± 0.13,1.06 ± 0.22,0.574 ± 0.13,0.273 ± 0.029,0.0663 ± 0.0023,0.0637 ± 0.0023
SAOS2 BONE,1.18 ± 0.055,1.19 ± 0.047,1.17 ± 0.058,1.137 ± 0.01,1.39 ± 0.1,1.32 ± 0.068,1.08 ± 0.12,0.944 ± 0.042,1.18 ± 0.055,1.12 ± 0.043,1.171 ± 0.01,1.23 ± 0.1,1.08 ± 0.045,0.874 ± 0.0098,0.433 ± 0.039,0.36 ± 0.014
SCC003 HEADNECK,1.04 ± 0.09,1.06 ± 0.022,1.06 ± 0.055,1.05 ± 0.054,1.05 ± 0.079,1.1 ± 0.018,0.848 ± 0.011,0.97 ± 0.12,1.06 ± 0.089,1.11 ± 0.036,1.08 ± 0.13,1.08 ± 0.11,0.776 ± 0.12,0.717 ± 0.093,0.366 ± 0.02,0.289 ± 0.04
SCC36 HEADNECK,1.05 ± 0.03,1.07 ± 0.038,0.991 ± 0.065,1.15 ± 0.055,1.07 ± 0.041,1.13 ± 0.042,0.427 ± 0.053,0.313 ± 0.017,1 ± 0.15,1.05 ± 0.043,1.12 ± 0.048,1.16 ± 0.074,1.11 ± 0.08,0.966 ± 0.08,0.497 ± 0.022,0.352 ± 0.015
SCC47 HEADNECK,1.06 ± 0.052,1.06 ± 0.091,1.06 ± 0.065,1.11 ± 0.054,1.14 ± 0.059,1.12 ± 0.1,0.671 ± 0.049,0.925 ± 0.0085,1.07 ± 0.091,1.07 ± 0.019,1.12 ± 0.019,1.11 ± 0.016,1.01 ± 0.092,0.996 ± 0.085,0.326 ± 0.023,0.33 ± 0.0059
SCC90 HEADNECK,1.05 ± 0.08,1.02 ± 0.082,1.02 ± 0.09,0.936 ± 0.1,0.991 ± 0.038,0.911 ± 0.034,0.189 ± 0.03,0.215 ± 0.021,1.12 ± 0.06,1.12 ± 0.14,1.11 ± 0.018,1.03 ± 0.036,0.912 ± 0.066,0.722 ± 0.079,0.376 ± 0.014,0.288 ± 0.0071
